Laboratory results taken from patent US9376499B2, “PAR-1 activation by metalloproteinase-1 (MMP-1)” (Tufts Medical Center, Inc., priority 2009, dated 2016).

How the values were obtained:
PAR1 [1] = experiment: Release of PAR1 N-terminal cleavage peptide from gel-filtered platelets (dot blot, IIaR-A antibody); type: cell-based, human; settings: 5 μg/ml collagen, 10 min, 37° C.; Ab 20 μg/ml; ARC 0.5 μM; ASA 1 mM
From the text: To further understand how collagen is able to activate significant amounts of endogenous MMP-1 collagenase activity on the surface of platelets, experiments were devised to determine if PAR-1 is cleaved in either an autocrine or paracrine manner following exposure to collagen. Using a monoclonal antibody raised against the amino-terminal thrombin-cleavage peptide region of PAR1, residues 32-46 (Loew et al., 2000), the relative abilities of thrombin, MMP-1 and collagen to cause cleavage of platelet PAR1 was assessed. Gel filtered platelets were treated for 10 min with thrombin (3 nM), MMP-1 (3 nM), collagen (5 μg/ml), in the presence or absence (PBS buffer) of 0.00013 U hirudin or 5 μM FN-439 at 37° C. Supernatants were concentrated 20-fold and applied to nitrocellulose membranes, then probed with the IIaR-A monoclonal antibody. The PAR1 N-terminal thrombin deavage peptide (A26-R41) and PAR1 flexible linker peptide (N-acetyl-T67-L84 -C) (Kuliopulos et al., 1999) served as positive and negative controls (100 ng), respectively.
These platelets were then stimulated with collagen (5 μg/ml) for 10 min. at 37° C. Supernatants were concentrated 20-fold and applied to nitrocellulose membranes, then probed with the IIaR-A monoclonal antibody. […] FN-439, or an MMP1-blocking antibody (20 μg/ml) but not by thrombin inhibitor, hirudin (see FIG. 1E, FIG. 1G).

platelets [2] = experiment: Platelet thrombus formation on collagen surface under arterial flow, heparin-anticoagulated whole blood; type: cell-based, human; settings: heparin 10 U/mL; shear rate 1,000 s-1; FN-439 3 μM, RWJ-56110 1 μM, pepducins 3 μM, aspirin 1 mM
Procedure: Following incubation with inhibitors, the blood was perfused over a glass slide coated with fibrillar collagen type I.
A flow chamber (Glycotech) with Type-I fibrillar collagen-coated glass slides was mounted on the stage of an IMT-2 inverted microscope (Olympus) equipped with Retiga 1300 digital camera (QImaging) and 40× objective. One of the flow chamber inlets was connected to a syringe pump (Harvard Apparatus) calibrated to create a shear rate of 1,000^s-1. The whole blood pretreated with the various pharmacologic inhibitors was then perfused over the collagen-coated glass slide. After 2-15 min of perfusion, blood was removed from the flow chamber by gentle displacement with PIPES buffer and images of 8-10 fields were acquired using OpenLab software (Improvision). Acquired images were further analyzed using NIH Image 1.63 software. Images were first sharpened and the edges of separate platelets and platelet aggregates were determined. Following the adjustment of threshold, images were converted into the binary format, and the particle analysis function was activated to highlight the regions covered by platelets with the sensitivity set to one single adherent thrombocyte. For the conversion of pixels into square micrometers, a calibration curve was built using 2.5, 6, 20, 25, and 45 μm polystyrene beads (Polyscience) using acquisition conditions identical to the experimental. The mean area of formed thrombus was determined at 7 min. Area measurements in FIG. 6B represent the mean±s.e. of three separate experiments from five different blood donors.

p38 MAPK = experiment: Collagen-induced phospho-p38 MAPK in platelets (western blot); type: cell-based, human; settings: 5 or 20 μg/ml collagen or 10 nM MMP-1; ARC 0.5 μM, aspirin 1 mM
Procedure: The effect of pharmacologic blockage of metalloproteases or PAR1 on collagen-dependent platelet aggregation was then tested (see FIG. 5). […] Platelets were pre-incubated for 5 min with the thrombin inhibitors PPACK (200 μM) or hirudin (1 U/ml), the Zn-chelator 1,10-phenanthroline (1,10-PA; 100 μM), the broad spectrum metalloprotease inhibitor MMP-200 (200 nM), the MMP-1 inhibitor FN-439 (3 μM), the PAR1 ligand binding site inhibitor RWJ-56110 (1 μM), the PAR1 blocking antibody (75 μg/ml), the PAR1 pepducin lipopeptides P1pal-12 (3 μM) or P1pal-7 (3 μM), the PAR4 pepducin lipopeptide P4pal-10 (3 μM), MMP-8 inhibitor (25 nM) or MMP9/13 inhibitor (10 nM).
In FIG. 5B, platelets were treated as in FIG. 5A and then lysed with Laemmli sample buffer 5 min after addition of collagen, p38 MAPK activity was then assessed by western blot with a p38 MAPK phospho-Ab and total p38 loading was determined using a p38 MAPK antibody.

platelets [3] = experiment: Platelet thrombus formation on collagen surface under arterial flow, CTI-anticoagulated whole blood; type: cell-based, human; settings: CTI 30 μg/mL, hirudin 0.0013 U/mL, aspirin 1 mM
Procedure: Collagen-activated platelets also provide a pro-coagulant surface and produce tissue factor, which aids in the production of thrombin (Giesen at al., 1999; Mackman, 2004; Schwertz et al., 2006).
Whole blood was anti-coagulated with CTI (30 μg/mL) to block the contact pathway, otherwise the experiments were conducted identically as in FIG. 6A. Hirudin was used as indicated at 0.0013 UImL.

Rho-GTP = experiment: Collagen-induced Rho-GTP activity in platelets (western blot); type: cell-based, human; settings: 5 or 20 μg/ml collagen or 10 nM MMP-1; ARC 0.5 μM, aspirin 1 mM
Procedure: In FIG. 5C, platelets were treated as in FIG. 5B and then Rho GTP activity was assessed by western blot.
Representative blots are shown at the bottom of FIGS. 5B-D. Data are the mean±s.d. of three experiments. P*<0.01, #<0.05.

PAR1 [4] = target: T1, PAR1 (Homo sapiens, UniProt P25116); experiment: MMP-1-induced PAR1-dependent calcium flux in platelets; type: cell-based; settings: RWJ-56110
T1 construct: able to cleave PAR1 on the surface of human platelets; endogenous in cells; host or cells: gel-filtered or washed human platelets
T1 sequence (P25116 22-425): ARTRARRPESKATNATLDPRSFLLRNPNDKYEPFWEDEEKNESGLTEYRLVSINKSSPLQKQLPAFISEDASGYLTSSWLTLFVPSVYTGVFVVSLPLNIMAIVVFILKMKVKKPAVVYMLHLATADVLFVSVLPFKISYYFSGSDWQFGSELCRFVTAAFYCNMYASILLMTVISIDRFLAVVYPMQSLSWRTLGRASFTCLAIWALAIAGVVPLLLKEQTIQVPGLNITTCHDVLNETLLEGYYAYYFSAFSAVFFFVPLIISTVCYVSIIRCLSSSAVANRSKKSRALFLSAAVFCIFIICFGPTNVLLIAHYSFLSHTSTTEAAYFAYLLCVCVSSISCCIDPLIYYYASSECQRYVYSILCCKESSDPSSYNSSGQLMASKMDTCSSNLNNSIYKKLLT
Procedure: In FIG. 4C, the induction of PAR1-dependent calcium fluxes by MMP-1 was measured. Calcium flux measurements of gel filtered platelets following challenge with MMP-1 in the presence or absence of RWJ-56110 were performed at 25° C. with emission recorded at 510 nm and dual excitation at 340 and 380 nm as described (Kuliopulos. 1999).

PAR1 [5] = target: T1, PAR1; experiment: MMP-1-induced platelet aggregation; type: cell-based; settings: 1 μM RWJ-56110
Procedure: In FIG. 4D, the induction of platelet aggregation by MMP-1 was determined. Gel-filtered platelets were challenged with MMP-1 in the presence or absence (0.2% DMSO vehicle) of the PAR1 inhibitor 1 μM RWJ-56110.

[6] = Carotid artery FeCl3 injury arterial thrombosis model; type: in vivo, guinea pig; settings: RWJ-56110 0.5 mg/kg; P1pal-7 0.13 mg/kg i.v.
From the text: To assess the efficacy on arterial thrombosis by blockade of thrombin, MMP-1, or PAR1, a standard carotid artery FeCl3 injury model was used in guinea pigs. FeCl3 causes denudation of the artery and exposure of type I collagen and other subendothelial matrix proteins. The effects of blocking thrombin with bivalirudin, MMP-1 with FN-439, and PAR1 with either the small molecule antagonist RWJ-56110 or the P1pal-7 pepducin on arterial thrombosis were then compared using a dopier probe.
For these arterial thrombosis experiments, 10 min after i.v. administration of vehicle (−), bivalirudin, RWJ-56110, P1 pal-7 or FN-439 (n=4-5) through the jugular vein at the indicated concentrations, the right carotid arteries were injured for 20 min using a 24 mm^2 piece of Bio-Rad Trans-Blot paper soaked in 20% FeCl3. Arterial flow 5 mm distal to the site of injury was measured with a 0.5 V Doppler probe (Transonic Systems). An arterial occlusion was defined as a flow rate of <0.01 V for ≧5 min. Doppler measurements were terminated at the 30 min time point following injury (* designates p<0.05).

platelets [7] = experiment: Collagen-dependent aggregation of gel-filtered human platelets (light transmittance); type: cell-based; settings: 5 μg/ml collagen; 1,10-PA 100 μM, MMP-200 200 nM, FN-439 3 μM, RWJ-56110 1 μM, PAR1 Ab 75 μg/ml, pepducins 3 μM, PPACK 200 μM, hirudin 1 U/ml
Procedure: Platelet pellets and their supernatants were prepared as follows. […] following established informed consent procedures. […] Alternatively, whole blood was obtained from Hartley Sprague guinea pigs (drawn from the vena cava) into 3% citrate plus 10 U/ml heparin. Washed platelets from the guinea pigs were prepared in PIPES buffer. Platelet aggregation was measured with a Chronolog 560VS/490-2D aggregometer using modified PIPES buffer as a blank. Samples were incubated for 5 min in the presence of inhibitors and 1.8 mM CaCl2 prior to addition of agonist. All reactions were in final volumes of 250 μl at 37° C. while stirring at 900 rpm.
The effect of pharmacologic blockage of metalloproteases or PAR1 on collagen-dependent platelet aggregation was then tested (see FIG. 5). Gel-filtered platelets from healthy individuals (supplemented with 0.3 mg/ml fibrinogen) were challenged with 5 μg/ml collagen in the presence or absence (0.2% DMSO vehicle) of the indicated inhibitors and allowed to stir at 900 rpm in an aggregometer cuvette (250 μL) at 37° C.
In FIG. 5A, platelet aggregation was monitored by light transmittance.

PAR1 [8] = target: T1, PAR1; experiment: Platelet shape change (decrease in light transmittance); type: cell-based; settings: 1 μM RWJ-56110
Procedure: In FIG. 3C, the ability of the […] peptide (PR-TRAP) to induce a change in platelet shape was determined. Washed human platelets were pretreated with 2 mM EGTA and then treated with the indicated agonists in the presence or absence of 1 μM RWJ-56110 while stirring at 1100 rpm. The decrease in light transmittance is an indication of the platelet shape change reaction.
In FIG. 4B, the ability of MMP-1 to induce platelet shape change was determined. Washed human platelets were pretreated with 2 mM EGTA and then challenged with MMP-1 in the presence or absence of 1 μM RWJ-56110 while stirring at 1100 rpm. Shape change was measured as described above.

platelets [9] = experiment: Clot retraction assay in human platelet-rich plasma, collagen initiated; type: cell-based; settings: 2.5-5 μg/ml collagen (titration 1-20 μg/ml); FN-439 5 μM, RWJ-56110 1 μM, MMP9/13 Inh 10 nM; 90 or 240 min
Procedure: Platelet rich plasma (PRP) was isolated from human whole blood anti-coagulated with 4% sodium citrate. Clot retraction assays were done in 1 ml volumes containing 800 μl PBS and 200 μl PRP plus 10 μl red blood cells to enhance contrast. Samples were pretreated with FN-439 (5 μM), MMP9/13 Inh (10 nM) or RWJ-56110 (1 μM) for 15 min and clot formation was initiated with 1-20 μg/ml type I fibrillar collagen. Samples were incubated at 37° C. for 90 or 240 min and then photographed with a digital camera. Each photograph in FIG. 6I is representative of three independent experiments.

PAR1 [10] = target: T1, PAR1; experiment: PAR1-dependent RhoA activation (Rho-GTP) in platelets by tethered-ligand peptides; type: cell-based; settings: 1 μM RWJ-56110
Procedure: Gel-filtered human platelets, supplemented with 0.3 mg/mL fibrinogen, were treated with 0.2% DMSO vehicle, or 30 μM SFLLRN (TRAP), PR-TRAP or reversed peptide (RP-TRAP), for 5 min at 37° C. in presence or absence of 1 μM RWJ-56110 as indicated. Platelets were lysed and Rho-GTP and total Rho was determined by Western analysis as described in the Experimental Procedures. Western bands were quantified by densitometry and results expressed relative to fold-increase from basal.

MAPKAP-K2 = experiment: Collagen activation of phospho-MAPKAP-K2 in platelets (data not shown); type: cell-based, human

inhibition of MMP-1-elicited calcium mobilization (PAR1 [4])	inhibition of MMP-1-elicited platelet aggregation (PAR1 [5])	block of PR-TRAP-induced platelet shape change (PAR1 [8])	inhibition of MMP-1-elicited platelet shape change (PAR1 [8])	block of signaling induced by PR-TRAP (PAR1 [10])	Structure (SMILES)	block of collagen-induced release of PAR1 N-terminal peptide (PAR1 [1])	attenuation of growth rate and size of platelet aggregate strings (platelets [2])	effect on activation of phospho-p38 MAPK (p38 MAPK)	effect on size of platelet micro-thrombi on collagen surfaces (platelets [3])	effect on activation of Rho-GTP (Rho-GTP)	effect on mean occlusion time [6]	inhibition (loss) of collagen-induced platelet aggregation (platelets [7]) [%]	inhibition of clot formation and retraction (platelets [9])	block of collagen-activation of phospho-MAPKAP-K2 (MAPKAP-K2)
–	–	–	–	–	CC(=O)Oc1ccccc1C(=O)O [aspirin]	no effect	little or no effect	no effect	did not affect	no effect	–	–	–	–
inhibited	inhibited	completely blocked	inhibited	completely blocked	NCC[C@H](NC(=O)[C@H](Cc1ccc(F)c(F)c1)NC(=O)Nc1ccc2c(CN3CCCC3)cn(Cc3c(Cl)cccc3Cl)c2c1)C(=O)NCc1ccccc1 [RWJ-56110]	–	~75%	–	–	–	did not appreciably affect	50	nearly identical pattern of inhibition	blocked
